Assay results published in publication PMC7761830, “Structure-Based Virtual Screening of Ultra-Large Library Yields Potent Antagonists for a Lipid GPCR” (Biomolecules, 2020).

Legend:
wild-type CysLT1R = molecular target: T1, wild-type CysLT1R (Homo sapiens, UniProt Q9Y271); test: IP1 production assay, antagonist mode, co-stimulation with EC80 LTD4; assay type: cell-based
T1 construct: expressed in transfected cells; host or cells: HEK293 (ATCC CRL-1573), transient transfection with Lipofectamine 3000
T1 sequence (Q9Y271 1-337): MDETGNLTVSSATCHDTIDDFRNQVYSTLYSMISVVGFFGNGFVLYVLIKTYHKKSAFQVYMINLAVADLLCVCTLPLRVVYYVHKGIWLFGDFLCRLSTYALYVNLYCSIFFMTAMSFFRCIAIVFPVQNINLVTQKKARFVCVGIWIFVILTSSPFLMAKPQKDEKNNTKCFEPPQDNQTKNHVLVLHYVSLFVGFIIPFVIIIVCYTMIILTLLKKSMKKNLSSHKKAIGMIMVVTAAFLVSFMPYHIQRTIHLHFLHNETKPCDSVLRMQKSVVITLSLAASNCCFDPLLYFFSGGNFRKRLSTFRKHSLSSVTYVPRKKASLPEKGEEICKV
Description: (§1) For this assay, we used the Cisbio IP-One kit as previously described. […] At 48 h post-transfection, the media was removed and the cells were washed with fresh Hank’s Balanced Salt Solution (HBSS). […] After compound stimulation, the cells were incubated for 1 h at 37 °C and stimulated with IP1-D2 and Ab-Crypt reagents in Lysis Buffer. The cells were then incubated at room temperature for an additional hour. […] Normalized data were plotted using either the three-parameter or four-parameter EC50/IC50 fits of GraphPad Prism 8 (San Diego). […] Data represent the means ± SEM of at least three independent experiments performed in quadruplicate.

wild-type CysLT2R = molecular target: T2, wild-type CysLT2R (Homo sapiens, UniProt Q9NS75); test: as above; assay type: cell-based; conditions: for inhibition at 30 µM: HEK293, compound 30 µM, LTD4 at EC80, HEK293, wild-type CysLT2R, read-out: inhibition of LTD4-induced IP1 production, single-concentration screen; for Emax: HEK293, read-out: CysLT2R (LTD4) % Max Inhibition ± SEM
T2 construct: expressed in transfected cells; host or cells: HEK293 (ATCC CRL-1573), transient transfection with Lipofectamine 3000
T2 sequence (Q9NS75 1-346): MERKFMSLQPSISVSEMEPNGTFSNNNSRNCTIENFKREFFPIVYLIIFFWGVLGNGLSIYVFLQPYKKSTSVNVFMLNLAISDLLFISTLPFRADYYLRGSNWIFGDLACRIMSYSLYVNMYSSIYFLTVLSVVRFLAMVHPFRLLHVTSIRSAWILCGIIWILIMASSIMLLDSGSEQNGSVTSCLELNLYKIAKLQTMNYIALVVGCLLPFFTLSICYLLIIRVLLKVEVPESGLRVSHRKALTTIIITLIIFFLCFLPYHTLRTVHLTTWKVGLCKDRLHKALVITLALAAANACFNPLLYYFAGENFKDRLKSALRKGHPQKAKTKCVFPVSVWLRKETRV
Description: as §1

Compound `COC[C@@H](C)n1c(-c2ccc3[nH]c(=O)oc3c2)csc1=Nc1ccc(C(N)=O)cc1` [BRI-12477] has a remaining activity at 30 µM (wild-type CysLT1R) of 74.9% and a remaining activity at 30 µM (wild-type CysLT2R) of 60.6%.

Work on `CC(Sc1nnc(-c2c[nH]c3ccccc23)n1C1CC1)C(=O)NC(N)=O` (centres unmarked) [BRI-12347] yielded a remaining activity at 30 µM (wild-type CysLT1R) of 79.7% and a remaining activity at 30 µM (wild-type CysLT2R) of 104%.

`O=C(O)COc1cccc(CNC(=O)c2cnc(-c3ncccn3)s2)c1` [BRI-12427] was tested, and the remaining activity at 30 µM (wild-type CysLT1R) was 78.7%, the remaining activity at 30 µM (wild-type CysLT2R) was 42.4% and the inhibition at 30 µM (wild-type CysLT2R) was no less than 50%. For the same compound, the Emax (wild-type CysLT2R) was 15 ± 13%.

`O=C(O)CNC(=O)c1ccc(NC(=O)COCc2ccccc2)cc1` [BRI-12473] gave a remaining activity at 30 µM (wild-type CysLT1R) of 86.5% and a remaining activity at 30 µM (wild-type CysLT2R) of 66.6%.

`O=C(c1ccc2nnnn2c1)N1CC=C(c2c[nH]c3ccccc23)CC1` [BRI-12332] showed a remaining activity at 30 µM (wild-type CysLT1R) of 96.7% and a remaining activity at 30 µM (wild-type CysLT2R) of 91.2%.

For `Cc1cccn2cc(-c3cccc(NC(=O)Cn4c(=O)[nH]c(=O)c5ccccc54)c3)nc12` [BRI-12438], the remaining activity at 30 µM (wild-type CysLT1R) was 62.6% and the remaining activity at 30 µM (wild-type CysLT2R) was 88.7%.

`O=C(O)CC(CNS(=O)(=O)c1ccc(Oc2ccc(Cl)cc2)cc1)C(=O)O` (centres unmarked) [BRI-12421] showed a remaining activity at 30 µM (wild-type CysLT1R) of 82.6% and a remaining activity at 30 µM (wild-type CysLT2R) of 57.3%.

With `O=C(O)CNC(=O)c1ccc(NC(=O)CCn2cccc2)cc1` [BRI-12442] the remaining activity at 30 µM (wild-type CysLT1R) was 74.5% and the remaining activity at 30 µM (wild-type CysLT2R) was 51.7%.

For `CNC(=O)c1cccc(NC(=O)CN2c3cccc4cccc(c34)S2(=O)=O)c1` [BRI-12322], the remaining activity at 30 µM (wild-type CysLT1R) was 69.8% and the remaining activity at 30 µM (wild-type CysLT2R) was 79.1%.

`Cc1ccccc1Nc1nc2sc(C(=O)NCCc3nnc4n3CCNC4=O)cc2s1` [BRI-12435] showed a remaining activity at 30 µM (wild-type CysLT1R) of 54.5%, an inhibition at 30 µM (wild-type CysLT1R; HEK293, compound 30 µM, LTD4 at EC80, HEK293, wild-type CysLT1R, read-out: inhibition of LTD4-induced IP1 production, single-concentration screen) of no less than 50% and an Emax (wild-type CysLT1R; HEK293, read-out: CysLT1R (LTD4) % Max Inhibition ± SEM) of 46 ± 20%. The remaining activity at 30 µM (wild-type CysLT2R) was 77.1%.

With `O=C(O)CC(NC(=O)c1ccc(Cl)c(N2CCNC2=O)c1)c1ccccc1` (centres unmarked) [BRI-12311] the remaining activity at 30 µM (wild-type CysLT1R) was 77.5% and the remaining activity at 30 µM (wild-type CysLT2R) was 91%.

With `O=C(O)CNC(=O)c1ccc(S(=O)(=O)Nc2ccc3sncc3c2)cc1` [BRI-12413] the remaining activity at 30 µM (wild-type CysLT1R) was 80%, the remaining activity at 30 µM (wild-type CysLT2R) was 49.5% and the inhibition at 30 µM (wild-type CysLT2R) was no less than 50%. It also gave an Emax (wild-type CysLT2R) of 5 ± 6%.

Work on `Cc1ccc2ncc(C(=O)NC3CN(C(=O)c4cc(C(N)=O)cs4)C3)n2c1` [BRI-12466] yielded a remaining activity at 30 µM (wild-type CysLT1R) of 67.7%, a remaining activity at 30 µM (wild-type CysLT2R) of 39% and an inhibition at 30 µM (wild-type CysLT2R) of no less than 50%. For the same compound, the Emax (wild-type CysLT2R) was 12 ± 6%.

`O=C(O)CNC(=O)c1ccc(NC(=O)CCc2cccc(F)c2F)cc1` [BRI-12441] showed a remaining activity at 30 µM (wild-type CysLT1R) of 88.3% and a remaining activity at 30 µM (wild-type CysLT2R) of 70.9%.

`O=C(O)[C@@H]1CC[C@H](C(=O)Nc2cccc(-c3nc4ccccc4[nH]3)c2)C1` [BRI-12309] was tested, and the remaining activity at 30 µM (wild-type CysLT1R) was 87.8% and the remaining activity at 30 µM (wild-type CysLT2R) was 87.4%.

Work on `O=C(O)CC(NS(=O)(=O)Cc1cccc2cccnc12)c1cnn(-c2ccccc2)c1` (centres unmarked) [BRI-12460] yielded a remaining activity at 30 µM (wild-type CysLT1R) of 83.9% and a remaining activity at 30 µM (wild-type CysLT2R) of 73.5%.

Compound `Cc1ccc(C(NS(=O)(=O)c2ccc(C(=O)NCC(=O)O)cc2)c2ccccn2)cc1` (centres unmarked) [BRI-12437] has a remaining activity at 30 µM (wild-type CysLT1R) of 91.9% and a remaining activity at 30 µM (wild-type CysLT2R) of 80.5%.

In the case of `C[S+]([O-])Cc1cccc(NC(=O)CC2(C(=O)O)Cc3ccccc3C2)c1` (centres unmarked) [BRI-12326], the remaining activity at 30 µM (wild-type CysLT1R) is reported as 79.3% and the remaining activity at 30 µM (wild-type CysLT2R) is reported as 71%.

Compound `O=C(O)CNS(=O)(=O)c1ccc(-c2ccc3c(c2)CCC3)s1` [BRI-12451] has a remaining activity at 30 µM (wild-type CysLT1R) of 65.3% and a remaining activity at 30 µM (wild-type CysLT2R) of 61.2%.

`COc1ccc(C2=NN(C(=O)CCC(=O)O)C(c3cccs3)C2)cc1` (centres unmarked) [BRI-12348] was tested, and the remaining activity at 30 µM (wild-type CysLT1R) was 89.5% and the remaining activity at 30 µM (wild-type CysLT2R) was 107%.

`COc1cccc(CC(=O)N[C@H]2[C@@H]3CC[C@@H](C3)[C@H]2C(=O)O)c1Cl` [BRI-12468] was tested, and the remaining activity at 30 µM (wild-type CysLT1R) was 89.1% and the remaining activity at 30 µM (wild-type CysLT2R) was 64.6%.

`O=C(O)CC(NC(=O)Cn1ncc2ccccc21)c1ccc(F)cc1` (centres unmarked) [BRI-12305] was tested, and the remaining activity at 30 µM (wild-type CysLT1R) was 93.1% and the remaining activity at 30 µM (wild-type CysLT2R) was 109%.

`O=C(O)CNC(=O)c1ccc(NS(=O)(=O)c2cccs2)cc1` [BRI-12323] was tested, and the remaining activity at 30 µM (wild-type CysLT1R) was 80.5% and the remaining activity at 30 µM (wild-type CysLT2R) was 100%.

`CN(CC(=O)Nc1ccc2[nH]ncc2c1)C1=NS(=O)(=O)c2ccccc21` [BRI-12331] was tested, and the remaining activity at 30 µM (wild-type CysLT1R) was 84.3% and the remaining activity at 30 µM (wild-type CysLT2R) was 92.8%.
